Here are results for 21 compounds from PubChem BioAssay AID206 (DTP/NCI, 2004).

SMILES strings stand for the structures. “And” between values parts separate entries of the source, which are not always exact repeats. Equal values may be shown once. Records with an inconclusive call do not appear.

For the experiment, the system named is nude mice, HT29 intrarenal xenograft, tumor weight T/C. Put plainly: NCI In Vivo Anticancer Drug Screen. Data for tumor model HT29;CX-1 Human Adenocarcinoma (MER+) (intrarenal inoculation) in NU/NU Swiss (nude) mice. The following applies: endpoint: mean tumor weight change, higher = larger tumour. The method in brief:
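Mice with transplanted tumors are dosed with compound while controls get vehicle only. Survival or tumor burden is then assessed per group, and the treated value is expressed relative to control.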

Where [1] appears, read: dose: 150.0 mg/kg/injection, schedule: Q04DX004 (sc), vehicle: Klucel (hydroxypropylcellulose) (HPC).
[2] abbreviates: dose: 600.0 mg/kg/injection, schedule: Q04DX004 (sc), vehicle: Klucel (hydroxypropylcellulose) (HPC).
The mark [3] stands for this setting: dose: 200.0 mg/kg/injection, schedule: Q04DX004 (sc), vehicle: saline with Tween-80.
The mark [4] stands for this setting: dose: 400.0 mg/kg/injection, schedule: Q04DX004 (sc), vehicle: saline with Tween-80.
Setting [5] is: dose: 1600.0 mg/kg/injection, schedule: Q04DX004 (sc), vehicle: saline with Tween-80.
[6] abbreviates: dose: 200.0 mg/kg/injection, schedule: Q04DX004 (sc), vehicle: Klucel (hydroxypropylcellulose) (HPC).
Where [7] appears, read: dose: 300.0 mg/kg/injection, schedule: Q04DX004 (sc), vehicle: Klucel (hydroxypropylcellulose) (HPC).
Setting [8] is: dose: 100.0 mg/kg/injection, schedule: Q04DX004 (sc), vehicle: saline with Tween-80.
The mark [9] stands for this setting: dose: 250.0 mg/kg/injection, schedule: Q04DX004 (sc), vehicle: water.

Take `OC1CCCC2CCC[N-]C12.OC1CCCC2CCC[N-]C12.[Mn+2]` (centres undefined): the T/C was 114 % of control under setting [1] and 124 % of control under setting [2].

As for `OCC1OC(n2cnc3c2NC=NC[C@H]3O)CC1O` (some centres undefined), the T/C is 168 % of control (dose: 1.0 mg/kg/injection, schedule: Q01DX010 (sc), vehicle: water) and 176 % of control (dose: 2.0 mg/kg/injection, schedule: Q01DX010 (sc), vehicle: water).

As for `OCCN1CCN(CC/C=C2/c3ccccc3Sc3ccc(Cl)cc32)CC1`, the T/C runs as follows: (dose: 25.0 mg/kg/injection, schedule: Q04DX004 (sc), vehicle: saline) 160 % of control; (dose: 50.0 mg/kg/injection, schedule: Q04DX004 (sc), vehicle: saline) 87 % of control; (dose: 100.0 mg/kg/injection, schedule: Q04DX004 (sc), vehicle: saline) 82 % of control; (dose: 200.0 mg/kg/injection, schedule: Q04DX004 (sc), vehicle: saline) 40 % of control.

On to `O=C1NC(=O)/C(=C/C=C/c2ccccc2)S1`, for which the T/C was 76 % of control under setting [3]; 68 % of control under setting [4]; 94 % of control (dose: 800.0 mg/kg/injection, schedule: Q04DX004 (sc), vehicle: saline with Tween-80); 83 % of control under setting [5].

With `CC1=C(C)C(=O)O[C@@H]([C@](C)(O)[C@]2(O)CC[C@@]3(O)[C@@H]4C[C@H]5O[C@]56CC=CC(=O)[C@]6(C)[C@H]4CC[C@]23C)C1`, the T/C reads like this: (dose: 450.0 mg/kg/injection, schedule: Q04DX004 (sc), vehicle: suspension in saline) 86 % of control; (dose: 900.0 mg/kg/injection, schedule: Q04DX004 (sc), vehicle: suspension in saline) 76 % of control; (dose: 1800.0 mg/kg/injection, schedule: Q04DX004 (sc), vehicle: suspension in saline) 102 % of control.

In the case of `CC1=NNC(=O)C1CCO` (centres undefined), the T/C by setting is: under setting [6], 66 % of control; (dose: 400.0 mg/kg/injection, schedule: Q04DX004 (sc), vehicle: Klucel (hydroxypropylcellulose) (HPC)) 44 % of control; (dose: 800.0 mg/kg/injection, schedule: Q04DX004 (sc), vehicle: Klucel (hydroxypropylcellulose) (HPC)) 99 % of control; (dose: 1600.0 mg/kg/injection, schedule: Q04DX004 (sc), vehicle: Klucel (hydroxypropylcellulose) (HPC)) 63 % of control.

For the compound `CCCCN(CCCC)C(Cl)=Nc1ccccc1`, the T/C (dose: 100.0 mg/kg/injection, schedule: Q04DX004 (sc), vehicle: other) is 103 % of control; the T/C (dose: 200.0 mg/kg/injection, schedule: Q04DX004 (sc), vehicle: other) was 100 % of control; the T/C (dose: 400.0 mg/kg/injection, schedule: Q04DX004 (sc), vehicle: other) is 96 % of control; the T/C (dose: 800.0 mg/kg/injection, schedule: Q04DX004 (sc), vehicle: other) was 91 % of control.

For `Cc1c2cc[n+](CCN3CCCCC3)cc2c(C)c2c1[nH]c1ccc(O)cc12`, the T/C was 100 % of control (dose: 12.5 mg/kg/injection, schedule: Q04DX004 (sc), vehicle: suspension in saline); 108 % of control (dose: 25.0 mg/kg/injection, schedule: Q04DX004 (sc), vehicle: suspension in saline); 98 % of control (dose: 50.0 mg/kg/injection, schedule: Q04DX004 (sc), vehicle: suspension in saline).

With `O=c1nc(-c2ccco2)sc(=O)[nH]1`, the T/C by setting is: under setting [7], 235 % of control; under setting [2], 98 % of control.

In the case of `O=C1N=C(Oc2ccccc2)SC1=O`, the T/C (dose: 50.0 mg/kg/injection, schedule: Q04DX004 (sc), vehicle: saline with Tween-80) is 40 % of control; the T/C under setting [8] is 76 % of control; the T/C under setting [3] was 59 % of control; the T/C under setting [4] was 78 % of control.

Consider `BrC1c2cccc3cccc(c23)C1Br` (centres undefined), for which the T/C by setting is: (dose: 150.0 mg/kg/injection, schedule: Q04DX004 (sc), vehicle: saline with Tween-80) 186 % of control; (dose: 1200.0 mg/kg/injection, schedule: Q04DX004 (sc), vehicle: saline with Tween-80) 36 % of control and 39 % of control.

Turning to `COc1ccc2[nH]c3c(c2c1)CCNC3CC(C)CCC=C(C)C` (centres undefined), the T/C was 47 % of control (dose: 37.5 mg/kg/injection, schedule: Q04DX004 (sc), vehicle: Klucel (hydroxypropylcellulose) (HPC)); 62 % of control under setting [1]; 55 % of control under setting [7].

Regarding `CNNCc1ccc(C(=O)NC(C)C)cc1`, the T/C is, setting by setting: (dose: 50.0 mg/kg/injection, schedule: Q01DX010 (sc), vehicle: saline) 194 % of control; (dose: 200.0 mg/kg/injection, schedule: Q01DX010 (sc), vehicle: saline) 63 % of control and 77 % of control.

For `COc1cc2cc(c1Cl)N(C)C(=O)CC(OC(=O)C(C)C)C1(C)OC1C(C)C1CC(O)(NC(=O)O1)C(OC)/C=C/C=C(C)C2` (centres undefined), the T/C (dose: 12.5 micrograms/kg/injection, schedule: Q04DX004 (sc), vehicle: saline + alcohol) was 74 % of control; the T/C (dose: 25.0 micrograms/kg/injection, schedule: Q04DX004 (sc), vehicle: saline + alcohol) was 155 % of control; the T/C (dose: 50.0 micrograms/kg/injection, schedule: Q04DX004 (sc), vehicle: saline + alcohol) is 165 % of control; the T/C (dose: 100.0 micrograms/kg/injection, schedule: Q04DX004 (sc), vehicle: saline + alcohol) is 31 % of control; the T/C (dose: 500.0 micrograms/kg/injection, schedule: Q04DX004 (sc), vehicle: saline + alcohol) was 5 % of control.

As for `CC[C@@H](C)[C@@H]1NC(=O)C(NC(=O)C(CC(C)C)N(C)C(=O)C2CCCN2C(=O)C(C)O)C(C)OC(=O)C(Cc2ccc(OC)cc2)N(C)C(=O)C2CCCN2C(=O)C(CC(C)C)NC(=O)C(C)C(=O)C(C(C)C)OC(=O)C[C@H]1O` (some centres undefined), the T/C (dose: 225.0 micrograms/kg/injection, schedule: Q04DX004 (sc), vehicle: distilled water + alcohol) was 105 % of control; the T/C (dose: 450.0 micrograms/kg/injection, schedule: Q04DX004 (sc), vehicle: distilled water + alcohol) is 106 % of control; the T/C (dose: 900.0 micrograms/kg/injection, schedule: Q04DX004 (sc), vehicle: distilled water + alcohol) was 78 % of control; the T/C (dose: 1800.0 micrograms/kg/injection, schedule: Q04DX004 (sc), vehicle: distilled water + alcohol) was 29 % of control.

Take `C=C1C(=O)C23[C@H](O)C1CC[C@H]2[C@]12COC3(O)[C@@H](O)[C@@H]1C(C)(C)CC[C@@H]2O`: the T/C (dose: 25.0 mg/kg/injection, schedule: Q04DX004 (sc), vehicle: Klucel (hydroxypropylcellulose) (HPC)) was 80 % of control.

For `C1CC[N-]CC1.[Cl][Pt+2][Cl].[NH-]C1CC1`, the T/C was 51 % of control and 54 % of control (dose: 50.0 mg/kg/injection, schedule: Q04DX004 (sc), vehicle: water); 17 % of control (dose: 100.0 mg/kg/injection, schedule: Q04DX004 (sc), vehicle: water).

In the case of `CCCCCCCC(=O)N/N=C(\CO)[C@]1(O)Cc2c(O)c3c(c(O)c2[C@@H](OC2CC(N)C(O)C(C)O2)C1)C(=O)c1c(OC)cccc1C3=O` (some centres undefined), the T/C is, setting by setting: (dose: 31.25 mg/kg/injection, schedule: Q04DX004 (sc), vehicle: water) 2 % of control; (dose: 32.5 mg/kg/injection, schedule: Q04DX004 (sc), vehicle: water) 102 % of control; (dose: 62.5 mg/kg/injection, schedule: Q04DX004 (sc), vehicle: water) 51 % of control; (dose: 65.0 mg/kg/injection, schedule: Q04DX004 (sc), vehicle: water) 34 % of control; (dose: 130.0 mg/kg/injection, schedule: Q04DX004 (sc), vehicle: water) 46 % of control; under setting [9], 10 % of control. The T/C (dose: 260.0 mg/kg/injection, schedule: Q04DX004 (sc), vehicle: water) was 19 % of control.

`O=C(O)CSc1nc(-c2ccccc2)c(-c2ccccc2)n1-c1ccccn1`: under setting [9], the T/C was 55 % of control.

As to `CC(=O)NC(CCc1ccc(Cl)c(Cl)c1)c1cccc(O)c(=O)c1` (centres undefined), the T/C is, setting by setting: (dose: 50.0 mg/kg/injection, schedule: Q04DX004 (sc), vehicle: Klucel (hydroxypropylcellulose) (HPC)) 107 % of control; (dose: 100.0 mg/kg/injection, schedule: Q04DX004 (sc), vehicle: Klucel (hydroxypropylcellulose) (HPC)) 124 % of control; under setting [6], 154 % of control.

As for `O=C(O)C1Cc2nc[nH]c2CN1CO` (centres undefined), the T/C by setting is: under setting [8], 90 % of control; under setting [5], 108 % of control.
